Values after ≈ are worked out from the molar mass of the structure shown. Square brackets hold non-standard residues; d marks the D form. Peptide text beside a SMILES is read from it. NMeL = CN[C@@H](CC(C)C)C(=O)O
Tests used:
[1] = test system: GRC-1; parameters: method as in PMID 18816120; settings: cited from earlier work
[2] = test system: MD-MBA-231; format: cell-based, human; settings: 72 h
Procedure: (§1) Cell culture: MCF-7/MD-MAB-231 (human breast cancer cell line ATCC HTB-22/HTB-26), Hep G2 (human liver cancer cell line ATCC HB-8065), Hela (human cervical carcinoma cell line ATCC CCL-2), A459 (human lung cancer cell line ATCC CCL-185), and HUVEC (primary umbilical vein endothelial cell line ATCC PCS-100-010) were obtained from the Jinan Department of Pathology, University School of Medicine (Jinan University, Guangzhou, China). The cells were cultured in a Modified Eagle’s Medium (DMEM) including 10% fetal bovine serum, 1% penicillin-streptomycin, and antifungal agent, and cultured under standard conditions (5% CO2 atmosphere and temperature at 37 °C). The MTT method was used to evaluate the cytotoxicities of galaxamide and its analogues on the five cancerous cells. In this experiment, the number of regulated cells was 2 × 10^3 cells/well. Then, the cells, as well as galaxamide and its analogues of different concentrations (0, 2.5, 5, and 10 μg/mL), were seeded on a 96-well cell culture plate and cultured in a 37 °C, 5% CO2 incubator for 72 h. After that, 20 µL/well of MTT solution (5 mg/mL phosphate-buffered saline) was added and incubated for 5 h. The medium was discarded and replaced with 100 µL/well of DMSO to dissolve the formazan salt. The color intensity of the cell culture at 570 nm was measured using a microplate spectrophotometer (SpectroAma™ 250, Winooski, VT, USA).

[3] = test system: Hela; format: cell-based, human; settings: 72 h
Procedure: as §1

[4] = test system: A549; format: cell-based, human; settings: 72 h
Procedure: as §1

[5] = test system: MCF-7; format: cell-based, human; settings: 72 h
Procedure: as §1

[6] = test system: HepG2; format: cell-based, human; settings: 72 h
Procedure: as §1

[7] = test system: HUVEC; format: cell-based, human; settings: 72 h
Procedure: as §1

[8] = test system: MCF-7 cells; experiment: Hoechst 33,342 staining of nuclear morphology; format: cell-based, human; settings: 72 h
Procedure: The morphological alteration of MCF-7 cells was analyzed by the method of Hoechst 33,342 staining (Figure 5). […] The pyknotic nuclei increased with the increasing concentration of these compounds.
[…] After that, the cell culture was washed with 1 mL of PBS and then added with 3 mL of 4% paraformaldehyde solution for 15 min. Then, 1 mL of the prepared Hoechst 33,342 staining solution was added. The resulting mixture was incubated at room temperature for 15 min in the dark.

[9] = test system: MCF-7 cells; experiment: Annexin V-FITC/PI double staining apoptosis, flow cytometry; format: cell-based, human; settings: 0, 2.5, 5, 10 µg/mL, 72 h
Procedure: The Annexin V-FITC/PI double staining method was used to analyze the changes in the apoptosis of MCF-7 cells after 72 h of galaxamide, Z-3, and Z-6 exposure. […] At low concentrations, the effects of all the tested compounds were not obvious. When the concentration reached 10 μg/mL, the apoptotic effects of galaxamide, Z-3, and Z-6 on MCF-7 cells were more obvious in the late apoptotic state.
(§2) The concentration of 1 × 10^4 cells per well of MCF-7 cells were seeded in 96-well plates. The cell cultures were added to the compounds with a concentration of 0, 2.5, 5, and 10 µg/mL, and incubated for 72 h. After that, 5 µL of Annexin V-fluorescein isothiocyanate (FITC) and 5 µL of PI were added for dual staining of the cells for analysis by FACS flow cytometry. Cell cycles and apoptotic cells were determined by counting the FITC-positive and PI-negative fractions.
The apoptotic cells were quantified according to the instructions provided in an Annexin V-FITC (Sigma-Aldrich, St. Louis, MO, USA) cell apoptosis assay kit. Briefly, about 1.5 × 10^5 cells were plated in 96-well plates and treated with galaxamide and its representative analogues (0, 2.5, 5, and 10 µg/mL) for 48 h. The cells were then resuspended in a […] binding buffer. Afterward, […] of annexin V-fluorescein isothiocyanate (FITC) was added, followed by incubation in darkness at room temperature for 10 min. The cells were again resuspended in […] binding buffer and stained with […] PI. The prepared cells were then analyzed using a flow cytometry (Coulter Epics Elite, Miami, FL, USA). The cells in the FITC-positive and PI-negative fractions were regarded as apoptotic cells.

[10] = test system: MCF-7 cells; experiment: Cell cycle distribution by propidium iodide staining / flow cytometry; format: cell-based, human; settings: 0, 2.5, 5, 10 µg/mL, 72 h
Procedure: Therefore, propidium iodide (PI) staining method was used to further investigate the changes in the cell cycle distribution of MCF-7. In particular, MCF-7 cells were exposed to galaxamide, Z-3, and Z-6 with concentrations of 0, 2.5, 5, and 10 µg/mL for 72 h. Generally, the main effects of galaxamide, Z-3, and Z-6 on MCF-7 cells were in the G0/G1 phase. There was no obvious sub diploid peak in flow cytometry.
as §2

[11] = test system: HepG2; parameters: method as in PMID 18816120; settings: cited from earlier work

- IC50 MD-MBA-231 [2]: 8.73 ± 0.29 µg/mL (≈ 14.7 µM)
- IC50 Hela [3]: 8.53 ± 0.73 µg/mL (≈ 14.4 µM)
- IC50 A549 [4]: 6.99 ± 0.63 µg/mL (≈ 11.8 µM)
- IC50 MCF-7 [5]: 11.33 ± 2.95 µg/mL (≈ 19.1 µM)
- IC50 HepG2 [6]: 5.20 ± 0.52 µg/mL (≈ 8.76 µM)
SMILES: CC(C)C[C@@H]1NC(=O)[C@H](CC(C)C)N(C)C(=O)[C@H](CC(C)C)NC(=O)[C@H](CC(C)C)N(C)C(=O)[C@H](CC(C)C)NC1=O [galaxamide] (cyclo(LL[NMeL]L[NMeL]))
- Antitumor activity against GRC-1 (in words) [1]: significant antitumor activities
- IC50 HUVEC [7]: >40 µg/mL
- Nuclear morphology of MCF-7 cells (in words) [8]: the morphology of the nuclei was significantly changed
- Apoptosis of MCF-7 cells (in words) [9]: apoptosis rate of MCF-7 increased with the increasing of the concentration
- Effect on cell cycle of MCF-7 (in words) [10]: mainly blocked the growth of cells in the G0/G1 phase
- Antitumor activity against HepG2 (in words) [11]: significant antitumor activities

From article PMC8949366, “Synthesis of Marine Cyclopeptide Galaxamide Analogues as Potential Anticancer Agents” (Marine Drugs, 2022)
